Reference: US11076595B2, “1-(n,n-disubstituted carbamoyl) 4-(substituted sulfonyl)triazolin-5-one derivative, 4-(n,n-disubstituted carbamoyl) 1-(substituted sulfonyl)triazolin-5-one derivative, and herbicide containing said derivative as active ingredient” (HOKKO CHEMICAL INDUSTRY CO., LTD., priority 2017, dated 2021)

Experiments:
Assay type in all cases: in vivo
Lindernia pyxidaria [1] = experiment: Test Example 11: herbicidal effect test by soil treatment in paddy field; conditions: 120 g/10a active ingredient, 14 days after treatment
How it was run: (§1)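 Weed suppression rate (%) was calculated as (1 − mean treated dry weight / mean untreated dry weight) × 100 at 14 days after treatment, two replicates per plot. Seeds were sown at 0–1 cm in flooded (about 3 cm) puddled paddy soil and treated immediately at 120 g active ingredient per 10 are.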

Scirpus juncoides [2] = experiment: as above; conditions: 120 g/10a active ingredient, 14 days after treatment
How it was run: as §1

Echinochloa crus-galli [3] = experiment: as above; conditions: 120 g/10a active ingredient, 14 days after treatment
How it was run: as §1

Monochoria vaginalis [4] = experiment: as above; conditions: 120 g/10a active ingredient, 14 days after treatment
How it was run: as §1

Lindernia pyxidaria [5] = experiment: Test Example 12: herbicidal effect test by treatment during growing period in paddy field; conditions: 120 g/10a; treatment seven days after sowing in flooded paddy pot; assessed 14 days after treatment
How it was run: (§2)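 Puddled paddy soil in Wagner pots, 30 seeds per species sown 0-1 cm deep, flooded to about 3 cm in a greenhouse. Seven days after sowing, water-diluted emulsifiable concentrate was dripped in at 120 g active ingredient per 10 are. Suppression (%) from dry weight versus untreated at 14 days, two replicates.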

Scirpus juncoides [6] = experiment: as above; conditions: 120 g/10a; treatment seven days after sowing in flooded paddy pot; assessed 14 days after treatment
How it was run: as §2

Echinochloa crus-galli [7] = experiment: as above; conditions: 120 g/10a; treatment seven days after sowing in flooded paddy pot; assessed 14 days after treatment
How it was run: as §2

Monochoria vaginalis [8] = experiment: as above; conditions: 120 g/10a; treatment seven days after sowing in flooded paddy pot; assessed 14 days after treatment
How it was run: as §2

| SMILES | Weed suppression rate (%) Lindemia pyxidaria (Lindernia pyxidaria [1]) | Weed suppression rate (%) Scirpus juncoides (Scirpus juncoides [2]) | Weed suppression rate (%) Echinochloa crus-galli (Echinochloa crus-galli [3]) | Weed suppression rate (%) Monochoria vaginalis (Monochoria vaginalis [4]) | Weed suppression rate (%) Lindemia pyxidaria (Lindernia pyxidaria [5]) | Weed suppression rate (%) Scirpus juncoides (Scirpus juncoides [6]) | Weed suppression rate (%) Echinochloa crus-galli (Echinochloa crus-galli [7]) | Weed suppression rate (%) Monochoria vaginalis (Monochoria vaginalis [8]) |
| --- | --- | --- | --- | --- | --- | --- | --- | --- |
| CN(C(=O)n1cnn(S(=O)(=O)c2cccs2)c1=O)c1ccc(F)cc1F [Compound 11-1147] | 100% | 70% | 100% | 70% | 70% | 100% | 100% | 90% |
| Cc1ccc(S(=O)(=O)n2ncn(C(=O)N(c3c(F)c(F)cc(F)c3F)C(C)C)c2=O)cc1 [Compound 11-642] | 80% | 70% | 100% | 70% | 70% | 100% | 100% | 90% |
| CC(C)N(C(=O)n1cnn(S(=O)(=O)c2cccs2)c1=O)c1ccc(C#N)cc1Cl [Compound 11-1044] | 90% | 90% | 90% | 90% | 80% | 90% | 90% | 80% |
| CC(C)N(C(=O)n1cnn(S(=O)(=O)c2ccccc2Cl)c1=O)c1c(F)cc(F)cc1F [Compound 11-516] | 90% | 90% | 100% | 80% | 70% | 70% | 100% | 80% |
| CC(C)N(C(=O)n1cnn(S(=O)(=O)c2ccc(C(C)(C)C)cc2)c1=O)c1ccc(Cl)cc1Br [Compound 11-694] | 80% | 70% | 90% | 70% | 60% | 80% | 70% | 70% |
| COc1ccc(S(=O)(=O)n2ncn(C(=O)N(c3ccc(F)c(F)c3F)C(C)C)c2=O)cc1 [Compound 11-1153] | 100% | 60% | 100% | 90% | 70% | 90% | 100% | 100% |
| Cc1ccc(S(=O)(=O)n2ncn(C(=O)N(c3cccc(F)c3F)C(C)C)c2=O)cc1 [Compound 11-636] | 100% | 90% | 100% | 100% | 80% | 100% | 100% | 100% |
| CC(C)N(C(=O)n1cnn(S(=O)(=O)C2CCCCC2)c1=O)c1ccc(C(F)(F)F)cc1Cl [Compound 11-314] | 80% | 90% | 90% | 80% | 80% | 90% | 90% | 80% |
| CC(C)N(C(=O)n1cnn(S(=O)(=O)C2CC2)c1=O)c1cccc(F)c1 [Compound 11-161] | 100% | 90% | 100% | 70% | 80% | 90% | 90% | 80% |
| CC(C)N(C(=O)n1cnn(S(=O)(=O)c2ccc(F)cc2)c1=O)c1cccc(F)c1F [Compound 11-474] | 100% | 100% | 100% | 100% | 100% | 100% | 100% | 90% |
